Reference: patent US20190255056A1, “A HCK INHIBITOR AND A BCL-2 INHIBITOR FOR TREATING ACUTE MYELOID LEUKEMIA” (RIKEN, priority 2016, published 2019)

Experiments:
human FLT3−ITD+AML cells = experiment: In vivo treatment of AML-engrafted NSG recipients (PDX model); parameters: species or system NSG mice
Protocol: NSG newborns received 1.5Gy total body irradiation followed by intravenous injection of purified human cells. Donor cells were purified according to their cell surface phenotype using monoclonal antibodies against human CD34, CD38, CD90, CD45RA, CD3, CD19 and CD33. Engraftment levels of human cells in the NSG recipients were assessed by retro-orbital phlebotomy and flow cytometry.
(§1) In vivo treatment experiments were performed with AML-engrafted NSG recipients using RK-20449 (Ref. STM 2013) and ABT-199 (Souers A J et al., Nature Medicine 2013, Pan R et al., Cancer Discovery 2014). The recipients were administered RK-20449 intraperitoneally 30 mg/kg twice a day, ABT-199 orally 70 mg/kg once a day or both RK-20449 and ABT-199 at these dosing schedules. The mice were sacrificed when they became moribund or after 4˜6 weeks of treatment, and human AML chimerisms in BM, spleen and PB were determined using flow cytometry. In secondary transplantation, each mouse received 7-AAD(-) viable human CD45+cells from 2.5% of total BM that remained in AML-engrafted recipients at the time of sacrifice, to simulate relapse occurring from residual viable AML cells.
These studies examined whether inhibition of a mutated kinase alone eliminates AML in vivo using a NSG PDX model. Patient-derived cells with a FLT3−ITD mutation engraft in vivo and initiate AML, but the individual FLT3−ITD+cells harbor multiple other mutations in various combinations. These mutations may contribute to therapy responsiveness in cooperation with FLT3−ITD, and a PDX model that reflects mutational complexity of human AML cells is necessary to examine the contribution of multiple co-existing mutations. Therefore, the frequency of AML-associated somatic mutations was evaluated in the disclosed PDX model using newborn NSG xenotransplantation, and the same sets of mutations were present in patient-derived leukemia-initiating population and engrafted AML cells in recipients (see, FIG. 4). […] The extent that targeting FLT3 pathway alone can result in reduction of human AML cells harboring multiple mutations in vivo was examined as follows. RK-20449 is a pyrrolo-pyrimidine-derivative multi-kinase inhibitor of Src family kinase HCK and FLT3 that effectively target human AML cells. Therefore, RK-20449 was administered to 58 NSG mice engrafted with AML from 19 FLT3−ITD+AML patients and the results are shown in FIG. 8.

[1] = system: residual viable human CD45+AML cells (leukemia-initiating capacity); experiment: Secondary (serial) transplantation of residual human AML cells after in vivo treatment; parameters: species or system NSG mice; settings: 2.5% of residual viable human CD45+ cells transplanted per secondary recipient; single-agent groups
Protocol: as §1
Leukemia-initiating capacity remaining after treatment was compared by isolating residual viable human CD45+AML cells from each treated mouse and transplanting a pre-determined fraction into secondary NSG recipients.

| Structure (SMILES) | response to ABT-199 alone (human FLT3−ITD+AML cells; ABT-199 orally 70 mg/kg once a day, majority of cases) | AML initiation in secondary recipients from treated BM [1] | residual BM human CD45+chimerism (human FLT3−ITD+AML cells; RK-20449 alone 30 mg/kg i.p. twice a day, five patients with complete responses, every recipient treated) [%] | response in the spleen (human FLT3−ITD+AML cells; RK-20449 alone, 11 additional cases) | response of FLT3−ITD+human AML cells to single agent in vivo (human FLT3−ITD+AML cells; all 19 cases tested) | remaining AML cells in BM, spleen and PB (human FLT3−ITD+AML cells; flow cytometry and immunohistochemistry, complete-responder patients, all recipients treated) | BCL-2 dependence for leukemia cell survival (human FLT3−ITD+AML cells; in vivo kinase inhibition) | cases with residual AML cells in the BM of at least one treated mouse (human FLT3−ITD+AML cells; single agent RK-20449) |
| --- | --- | --- | --- | --- | --- | --- | --- | --- |
| CC1(C)CCC(CN2CCN(c3ccc(C(=O)NS(=O)(=O)c4ccc(NCC5CCOCC5)c([N+](=O)[O-])c4)c(Oc4cnc5[nH]ccc5c4)c3)CC2)=C(c2ccc(Cl)cc2)C1 [ABT-199, reference compound] | limited responses | every secondary recipient |  |  |  |  |  |  |
| CN1CCN([C@H]2CC[C@H](n3cc(-c4ccc(Oc5ccccc5)cc4)c4c(N)ncnc43)CC2)CC1 [RK-20449, 7-((1R,4R)-4-(4-methylpiperazin-l-yl)cyclohexyl)-5-(4-phenoxyphenyl)-7H-pyrrolo[2,3-d]pyrimidin-4-amine] |  | every secondary recipient | < 5 | complete responses in the spleen in a majority of recipients tested | significant responses | less than 0.01% | enhanced | 14 of 19 |
